Reference: patent publication US20250281568A1, “METHOD FOR TREATING OR PREVENTING DRUG-INDUCED LIVER INJURY WITH PEPTIDE COMPOSITION” (Tunghai University, priority 2024, published 2025)

Tests used:
Assay type in all cases: in vivo
BALB/cByJNarl mice [1] = assay: Biochemical analysis of blood (serum) of mice injected with acetaminophen; conditions: 50 mg/kg/day oral, 7 days
Protocol: (§1) After being raised under the corresponding conditions for 7 days, each group of mice was weighed and then fasted for 12 hours. After fasting, each group of mice was intraperitoneally injected with an acetaminophen solution at 300 mg/kg. 24 hours after the injection, the mice were sacrificed, and blood was collected from the mice.
The blood collected from each group of mice in example 2 was analyzed with a commercial assay kit in order to determine the concentrations of aspartate aminotransferase (AST), alanine aminotransferase (ALT), alkaline phosphatase (ALP), C-reactive protein (CRP), interleukin-6 (IL-6), and monocyte chemoattractant protein-1 (MCP-1) in the serum of each group of mice.

BALB/cByJNarl mice [2] = assay: Analysis of stained liver tissue sections (H&E, immunohistochemical staining) of mice injected with acetaminophen; conditions: 50 mg/kg/day oral, 7 days
Protocol: as §1
The liver tissue collected from each group of mice in example 2 was sectioned and then subjected to immunohistochemical staining with hematoxylin and eosin (H&E) and with different antibodies.

BALB/cByJNarl mice [3] = assay: Analysis of proteins in the liver of mice injected with acetaminophen; conditions: 50 mg/kg/day oral, 7 days; vs control group
Protocol: as §1
Livers were collected from each group of mice in example 2 and were analyzed in order to determine the concentrations of superoxidase dismutase (SOD), glutathione peroxidase (GPx), and glutathione (GSH) in the livers.

[4] = Animal test: body weight and organ weights of mice; conditions: 50 mg/kg/day oral, 7 days, then acetaminophen 300 mg/kg i.p.
Protocol: as §1

[5] = immunohistochemical staining, vs control group

With NCCC(=O)N[C@@H](Cc1cnc[nH]1)C(=O)O [carnosine] the “serum CRP concentration” value (BALB/cByJNarl mice [1]; vs blank group) was “not significantly different from that of the blank group”, the “serum ALP concentration” value (BALB/cByJNarl mice [1]; vs control group) was “significantly lower than those of the control group” and the “serum ALT concentration” value (BALB/cByJNarl mice [1]; vs control group) was “significantly lower than those of the control group”. The “serum AST concentration” value (BALB/cByJNarl mice [1]; vs control group) was “significantly lower than those of the control group”, the “serum CRP concentration” value (BALB/cByJNarl mice [1]; vs control group) was “significantly lower than that of the control group” and the “serum IL-6 concentration” value (BALB/cByJNarl mice [1]; vs control group) was “lower than that of the control group”. For the same molecule, the “serum MCP-1 concentration” value (BALB/cByJNarl mice [1]; vs control group) was “significantly lower than that of the control group”, the “expression amount of 4-hydroxy-2-nonenal (4-HNE) in the liver” value (BALB/cByJNarl mice [2]; [5]) was “significantly less” and the “expression amount of GSH in the liver” value (BALB/cByJNarl mice [2]; [5]) was “significantly greater”. For the same molecule, the “expression amount of Kelch-like ECH-associated protein 1 (Keap1) in the liver” value (BALB/cByJNarl mice [2]; [5]) was “significantly less”, the “expression amount of heme oxygenase 1 (HO-1) in the liver” value (BALB/cByJNarl mice [2]; [5]) was “significantly greater” and the “expression amount of nuclear factor erythroid 2-related factor 2 (Nrf2) in the liver” value (BALB/cByJNarl mice [2]; [5]) was “significantly greater”. For the same molecule, the “liver cell damage (H&E-stained liver section)” value (BALB/cByJNarl mice [2]; vs blank group) was “significantly damaged in comparison with those of the blank group”, the “liver cell damage (H&E-stained liver section)” value (BALB/cByJNarl mice [2]; vs control group) was “damaged to a smaller extent than those of the control group” and the “liver GPx concentration” value (BALB/cByJNarl mice [3]) was “significantly higher than those of the control group”. For the same molecule, the “liver GSH concentration” value (BALB/cByJNarl mice [3]) was “significantly higher than those of the control group”, the “liver SOD concentration” value (BALB/cByJNarl mice [3]) was “significantly higher than those of the control group” and the weight of heart ([4]; 24 hours, among the groups) was “no significant difference in the weight of heart”. The liver weight ([4]; vs control group) was “liver weight of the control group of mice was significantly higher than those of the other groups”.
